Experimental data from patent publication US20250109135A1, “NOVEL ISOINDOLINONE DERIVATIVE COMPOUNDS AS CASPASE INHIBITORS” (INNOVO THERAPEUTICS INC., priority 2022, published 2025).
Like-named read-outs stand apart in the source and are kept apart here.

Legend:
[1] = target: T1, recombinant human Caspase-1 (Homo sapiens, UniProt P29466); assay: Caspase-1 inhibitory activity, fluorescent substrate Ac-YVAD-AFC; type: biochemical
T1 construct: purchased Enzo life science
T1 sequence (P29466 120-297 limits assumed): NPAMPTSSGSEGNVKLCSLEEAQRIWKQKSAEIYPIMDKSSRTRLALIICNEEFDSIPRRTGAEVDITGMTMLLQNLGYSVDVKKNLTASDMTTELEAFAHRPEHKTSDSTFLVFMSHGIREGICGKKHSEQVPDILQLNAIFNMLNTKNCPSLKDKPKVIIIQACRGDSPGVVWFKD
T1 sequence (P29466 317-404 limits assumed): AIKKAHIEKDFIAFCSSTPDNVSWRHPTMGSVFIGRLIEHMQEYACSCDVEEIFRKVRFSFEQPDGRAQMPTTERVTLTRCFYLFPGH
In short: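 Inactivation kinetics with 1 unit enzyme and 50 μM Ac-YVAD-AFC in 50 mM HEPES pH 8.0, 50 mM KCl, 200 mM NaCl, 10 mM DTT, 0.1% CHAPS, at various compound concentrations. Rate followed over time at Ex/Em 400/505 nm. kobs/[I] binned: A ≥20, B 10–<20, C 1–<10, D <1.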

[2] = tested on: Jurkat cells; assay: Apoptosis inhibition activity in human T-lymphocyte cells Jurkat (anti-FAS antibody, intracellular ATP); type: cell-based; settings: compound 50 nM, 1 μg/ml anti-FAS antibody 24 h, ATP luminescence
Protocol: To evaluate the effect of the compound of the present invention on apoptosis, Jurkat (ATCC) cells were treated with anti-FAS antibody CH-11 (Merck) to induce apoptosis via the Fas (CD95) receptor, which was assessed by the amount of intracellular ATP.
Jurkat cells were cultured in RPMI 1640 growth medium comprising 10% FBS and antibiotics (100 U/ml Penicillin, 0.1 mg/ml Streptomycin) under 37° C., 5% CO2 conditions. Cultured cells were seeded in growth medium to a concentration of 8×10^4 cells/well in 96-well plates (SPL), pretreated with compound at a concentration of 50 nM for 1 hour, and then treated with 1 μg/ml anti-FAS antibody for 24 hours in an incubator. After 24 h, an ATP lite Luminescence assay kit (PerkinElmer) was used to measure ATP and luminescence was measured at 580 nm using a CLARIOstar Plus spectrometer. If the inhibitory activity is 30% or more, it is denoted as a′, if it is 20% or more but less than 30%, it is denoted as b′, if it is 10% or more but less than 20%, it is denoted as c′, and if it is less than 10%, it is denoted as d′.

[3] = tested on: Secreted IL-1β in THP-1 cells; assay: Interleukin-1β inhibitory activity in human monocytic cells THP-1 (ELISA); type: cell-based; settings: compound 100 nM, PMA-differentiated THP-1, LPS 10 μg/ml then 5 mM ATP, 24 h
In short: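 THP-1 cells were differentiated with 1 μM PMA for 24 h, primed with 10 μg/ml LPS in serum-free medium for 24 h, then given compound at 100 nM for 1 h before 5 mM ATP for 24 h. Secreted IL-1β was measured by ELISA, and inhibition was binned a ≥50%, b 30–<50%, c 10–<30%, d <10%.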

[4] = pH 8, read-out: kobs/[I] Caspase-1
[5] = pH 8, 1 unit recombinant human Caspase-1, 50 μM Ac-YVAD-AFC, read-out: kobs/[I] Caspase-1

SMILES	kinact/KI [1, 5] [M⁻¹ s⁻¹]	kinact/KI [1, 4] [M⁻¹ s⁻¹]	inhibition at 0.05 µM [2] [%]	inhibition at 0.1 µM [3] [%]
O=C(O)CC(NC(=O)CN1Cc2ccc(-c3ccc4occc4c3)cc2C1=O)C(=O)CF (stereo not drawn) [Compound 41, 3-(2-(6-(benzofuran-5-yl)-1-oxoisoindolin-2-yl)acetamido)-5-fluoro-4-oxopentanoic acid]		0.0167 to 0.167	< 10	< 10
CC(C)[C@@H](C(=O)NC(CC(=O)O)C(=O)CF)N1Cc2ccc(-c3coc4ccccc34)cc2C1=O (stereo partly drawn) [Compound 44, 3-((S)-2-(6-(benzofuran-3-yl)-1-oxoisoindolin-2-yl)-3-methylbutanamido)-5-fluoro-4-oxopentanoic acid]	0.167 to 0.333		20 to 30	≥ 50
CC(C)[C@@H](C(=O)NC(CC(=O)O)C(=O)CF)N1Cc2ccc(-c3ccc4[nH]c(=O)[nH]c4c3)cc2C1=O (stereo partly drawn) [Compound 45, 5-fluoro-3-((S)-3-methyl-2-(1-oxo-6-(2-oxo-2,3-dihydro-1H-benzo[d]imidazol-5-yl)isoindolin-2-yl)butanamido)-4-oxopentanoic acid]		0.0167 to 0.167	10 to 20	30 to 50
CC[C@@H](C(=O)N[C@@H](CC(=O)O)C(=O)COc1c(F)c(F)cc(F)c1F)N1Cc2ccc(-c3coc4ccccc34)cc2C1=O [Compound 50, (S)-3-((S)-2-(6-(benzofuran-3-yl)-1-oxoisoindolin-2-yl)butanamido)-4-oxo-5-(2,3,5,6-tetrafluorophenoxy)pentanoic acid]	0.167 to 0.333		≥ 30	≥ 50
CC[C@@H](C(=O)N[C@@H](CC(=O)O)C(=O)COc1c(F)c(F)cc(F)c1F)N1Cc2ccc(-c3ccc4[nH]c(=O)[nH]c4c3)cc2C1=O [Compound 52, (S)-4-oxo-3-((S)-2-(1-oxo-6-(2-oxo-2,3-dihydro-1H-benzo[d]imidazol-5-yl)isoindolin-2-yl)butanamido)-5-(2,3,5,6-tetrafluorophenoxy)pentanoic acid]		> 0.333	10 to 20	10 to 30
CC[C@@H](C(=O)NC(CC(=O)O)C(=O)CF)N1Cc2cc(-c3coc4ccccc34)ccc2C1=O (stereo partly drawn) [Compound 57, 3-((S)-2-(5-(benzofuran-3-yl)-1-oxoisoindolin-2-yl)butanamido)-5-fluoro-4-oxopentanoic acid]		0.0167 to 0.167	20 to 30	10 to 30
CC[C@@H](C(=O)NC(CC(=O)O)C(=O)CF)N1Cc2cc(-c3ccc4c(c3)OCCO4)ccc2C1=O (stereo partly drawn) [Compound 58, 3-((S)-2-(5-(2,3-dihydrobenzo[b][1,4]dioxin-6-yl)-1-oxoisoindolin-2-yl)butanamido)-5-fluoro-4-oxopentanoic acid]		0.0167 to 0.167	10 to 20	10 to 30

Now from value to compound, other results behind:

kinact/KI [1, 5] [M⁻¹ s⁻¹]	SMILES	kinact/KI [1, 4] [M⁻¹ s⁻¹]	inhibition at 0.05 µM [2] [%]	inhibition at 0.1 µM [3] [%]
0.0167 to 0.167	CC(C)[C@@H](C(=O)NC(CC(=O)O)C(=O)CF)N1Cc2ccc(-c3ccc4c(c3)OCCO4)cc2C1=O (stereo partly drawn) [Compound 42, 3-((S)-2-(6-(2,3-dihydrobenzo[b][1,4]dioxin-6-yl)-1-oxoisoindolin-2-yl)-3-methylbutanamido)-5-fluoro-4-oxopentanoic acid]		≥ 30	30 to 50
0.167 to 0.333	CC[C@@H](C(=O)N[C@@H](CC(=O)O)C(=O)COc1c(F)c(F)cc(F)c1F)N1Cc2ccc(-c3ccc4c(c3)OCCO4)cc2C1=O [Compound 51, (S)-3-((S)-2-(6-(2,3-di hydrobenzo[b][1,4]dioxin-6-yl)-1-oxoisoindolin-2-yl)butanamido)-4-oxo-5-(2,3,5,6-tetrafluorophenoxy)pentanoic]		20 to 30	30 to 50
0.0167 to 0.167	CC[C@@H](C(=O)N[C@H](CC(=O)O)C(=O)COc1c(F)c(F)cc(F)c1F)N1Cc2ccc(-c3ccc4c(c3)OCCO4)cc2C1=O [Compound 54, (R)-3-((S)-2-(6-(2,3-dihydrobenzo[b][1,4]dioxin-6-yl)-1-oxoisoindolin-2-yl)butanamido)-4-oxo-5-(2,3,5,6-tetrafluorophenoxy)pentanoic acid]		< 10	30 to 50
0.0167 to 0.167	CC[C@@H](C(=O)NC(CC(=O)O)C(=O)CF)N1Cc2ccc(-c3ccc4c(c3)OCCO4)cc2C1=O (stereo partly drawn) [Compound 55, 3-((S)-2-(6-(2,3-dihydrobenzo[b][1,4]dioxin-6-yl)-1-oxoisoindolin-2-yl)butanamido)-5-fluoro-4-oxopentanoic acid]		≥ 30	30 to 50
0.167 to 0.333	CC[C@@H](C(=O)NC(CC(=O)O)C(=O)CF)N1Cc2ccc(-c3ccc4[nH]c(=O)[nH]c4c3)cc2C1=O (stereo partly drawn) [Compound 56, 5-fluoro-4-oxo-3-((S)-2-(1-oxo-6-(2-oxo-2,3-dihydro-1H-benzo[d]imidazol-5-yl)isoindolin-2-yl)butanamido)pentanoic acid]		< 10	≥ 50
